Drawing on PubChem BioAssay (NCI), this text covers TGI and GI50 for nine compounds.

“And” between values parts separate entries of the source, which are not always exact repeats. Equal entries are not always repeated.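 Dose response: 5 concentrations. Exposure: 48 h. Format: 96-well plates. Endpoint: linear interpolation; highest concentration if not reached. GI50 = concentration required for 50% inhibition of growth. TGI: concentration producing complete growth inhibition.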 Some results are limits rather than exact numbers.

Test systems include COLO 205 colon; IGROV1 ovarian; M14 melanoma; MOLT-4 leukemia; NCI-H23 lung; NCI/ADR-RES ovarian; OVCAR-3 ovarian; SK-MEL-5 melanoma; U251 CNS; HCC-2998 colon.
Common to all, as to assay: growth of human tumour cells (NCI), 48 h

Consider `Cn1c(=O)c2c(nc(C(=N)SCC(=O)O)n2C)n(C)c1=O`, for which the TGI in the assay with COLO 205 colon was 71.5 µM; in the assay on IGROV1 ovarian, more than 100 µM; in the assay on M14 melanoma, more than 100 µM; with MOLT-4 leukemia, 50.9 µM; in the assay on NCI-H23 lung, more than 100 µM; in the assay with NCI/ADR-RES ovarian it was more than 100 µM. The TGI in the assay on OVCAR-3 ovarian was more than 100 µM; in the assay on SK-MEL-5 melanoma it was 37.6 µM; in the assay with U251 CNS, more than 100 µM.
Regarding `O=C(/C(=C\c1c(-c2ccccc2)[nH]c2ccccc12)S(=O)(=O)c1ccccc1)c1ccccc1`, the GI50 with COLO 205 colon is 7.8 µM; with HCC-2998 colon it was more than 100 µM; in the assay on IGROV1 ovarian, more than 100 µM; with M14 melanoma, 15.6 µM; in the assay on NCI-H23 lung, 9.57 µM; in the assay on NCI/ADR-RES ovarian, more than 100 µM. Besides, the GI50 in the assay with OVCAR-3 ovarian is more than 100 µM; in the assay on SK-MEL-5 melanoma, 9.01 µM; in the assay on U251 CNS, 8.64 µM. In addition, the TGI with COLO 205 colon, in the assay on HCC-2998 colon, in the assay on IGROV1 ovarian, in the assay with M14 melanoma, with NCI-H23 lung and in the assay on NCI/ADR-RES ovarian was more than 100 µM throughout. In addition, the TGI with OVCAR-3 ovarian, with SK-MEL-5 melanoma and with U251 CNS was more than 100 µM throughout.
In the case of `O=C(O)c1cccc(COc2ccc([N+](=O)[O-])cc2Cl)c1`, the GI50 with COLO 205 colon was more than 100 µM; in the assay with HCC-2998 colon it was more than 100 µM; in the assay with IGROV1 ovarian, 74.6 µM; in the assay with M14 melanoma, more than 100 µM; with NCI/ADR-RES ovarian, more than 100 µM; in the assay with OVCAR-3 ovarian, 50.3 µM. For the same compound, the GI50 was 40.1 µM in the assay with SK-MEL-5 melanoma and more than 100 µM with U251 CNS. Moreover, the TGI with COLO 205 colon, in the assay on HCC-2998 colon, in the assay on IGROV1 ovarian, in the assay with M14 melanoma, with NCI/ADR-RES ovarian and in the assay on OVCAR-3 ovarian was more than 100 µM each time. The TGI with SK-MEL-5 melanoma and with U251 CNS was more than 100 µM throughout.
`O=C1CCCN1c1ccccc1I(=O)=O`: the GI50 with COLO 205 colon, with HCC-2998 colon, in the assay on IGROV1 ovarian, in the assay on MOLT-4 leukemia, in the assay with NCI-H23 lung and with NCI/ADR-RES ovarian was more than 100 µM in each case. Also, the GI50 in the assay with OVCAR-3 ovarian, in the assay on SK-MEL-5 melanoma and in the assay on U251 CNS was more than 100 µM throughout. In addition, the TGI in the assay on COLO 205 colon, in the assay with HCC-2998 colon, in the assay with IGROV1 ovarian, with MOLT-4 leukemia, in the assay with NCI-H23 lung and in the assay on NCI/ADR-RES ovarian was more than 100 µM in each case. Also, the TGI in the assay with OVCAR-3 ovarian, with SK-MEL-5 melanoma and in the assay on U251 CNS was more than 100 µM throughout.
Turning to `COC(=O)c1cc2c(o1)-c1nccc3c1c(nc1ccccc13)C2=O`, the GI50 in the assay with COLO 205 colon is 14.9 µM; in the assay with IGROV1 ovarian, 1.4 µM; in the assay with M14 melanoma, 2.31 µM; in the assay on MOLT-4 leukemia it was 2.64 µM; in the assay with NCI-H23 lung it was 5.66 µM; with NCI/ADR-RES ovarian, 2.11 µM. Further, the GI50 was 1.26 µM in the assay with OVCAR-3 ovarian, 1.2 µM in the assay on SK-MEL-5 melanoma and 5.05 µM in the assay on U251 CNS. Besides, the TGI in the assay with COLO 205 colon came out at 29.3 µM; in the assay on IGROV1 ovarian, 4.42 µM; in the assay with M14 melanoma it was 10.2 µM; in the assay on MOLT-4 leukemia it was 7.28 µM; with NCI-H23 lung, 26.7 µM; in the assay on NCI/ADR-RES ovarian, 5.68 µM. Moreover, the TGI with OVCAR-3 ovarian came to 4.37 µM; in the assay with SK-MEL-5 melanoma, 4.69 µM; in the assay on U251 CNS, 38.9 µM.
Regarding `CN(C)CCNCCN`, the TGI in the assay with COLO 205 colon, with IGROV1 ovarian, in the assay on M14 melanoma, in the assay on MOLT-4 leukemia, in the assay on NCI-H23 lung and with NCI/ADR-RES ovarian was more than 100 µM each time. Further, the TGI in the assay with OVCAR-3 ovarian, in the assay with SK-MEL-5 melanoma and in the assay on U251 CNS was more than 100 µM throughout.
On to `N#CCCN1C/C(=C/c2ccc(Br)cc2)C(=O)/C(=C/c2ccc(Br)cc2)C1`, for which the GI50 with COLO 205 colon was 1.57 µM; in the assay on HCC-2998 colon, 1.85 µM; in the assay on IGROV1 ovarian it was 2.02 µM; in the assay with M14 melanoma, 1.99 µM; in the assay on MOLT-4 leukemia, 2.85 µM; in the assay on NCI-H23 lung, 2.64 µM. For the same compound, the GI50 in the assay with NCI/ADR-RES ovarian was 3.47 µM; in the assay with SK-MEL-5 melanoma, 1.58 µM; in the assay on U251 CNS it was 0.409 µM. In addition, the TGI in the assay on COLO 205 colon was 2.97 µM; in the assay on HCC-2998 colon it was 3.31 µM; in the assay on IGROV1 ovarian it was 5.35 µM; in the assay with M14 melanoma it was 4.15 µM; with MOLT-4 leukemia, more than 100 µM; in the assay with NCI-H23 lung, 7.58 µM. In addition, the TGI was more than 100 µM in the assay with NCI/ADR-RES ovarian, 2.93 µM in the assay with SK-MEL-5 melanoma and 1.58 µM in the assay with U251 CNS.
For the compound `CN(C)C(=S)SSC(=S)N(C)C`, the TGI in the assay on COLO 205 colon is 29.3 µM; in the assay on HCC-2998 colon it was > 100 µM and 38 µM; in the assay with IGROV1 ovarian it was > 100 µM and 29.3 µM; with M14 melanoma it was 30 µM and > 61.7 µM and > 51.3 µM; in the assay with MOLT-4 leukemia it was 75.1 µM and 37.5 µM and 23.8 µM; in the assay with NCI-H23 lung it was 64.9 µM and 14.3 µM and 43.7 µM. Moreover, the TGI in the assay with NCI/ADR-RES ovarian is 30.4 µM and 36 µM; in the assay on SK-MEL-5 melanoma it was > 100 µM and 20.8 µM and 29.2 µM; in the assay with U251 CNS, 26 µM and > 65.3 µM and 38.5 µM. The GI50 in the assay on HCC-2998 colon was 38.3 µM; in the assay with IGROV1 ovarian, more than 89.9 µM; with M14 melanoma, 14.4 µM; in the assay with NCI-H23 lung it was 21.5 µM and 4.49 µM and 21 µM; in the assay on U251 CNS it was 12.6 µM.
Turning to `ClCCN(CCCl)c1ccc(CNc2ccccc2)cc1`, the GI50 is 20.8 µM in the assay with COLO 205 colon; 16 µM in the assay with IGROV1 ovarian; 8.27 µM in the assay on M14 melanoma; 2.81 µM in the assay on MOLT-4 leukemia; 9.59 µM with NCI-H23 lung; 9.78 µM in the assay on NCI/ADR-RES ovarian. In addition, the GI50 in the assay on OVCAR-3 ovarian is 15.2 µM; with SK-MEL-5 melanoma it was 11.3 µM; in the assay with U251 CNS, 4.43 µM. Moreover, the TGI with COLO 205 colon, in the assay with IGROV1 ovarian, in the assay with M14 melanoma, in the assay with MOLT-4 leukemia, in the assay on NCI-H23 lung and with NCI/ADR-RES ovarian was more than 100 µM each time. In addition, the TGI was more than 100 µM with OVCAR-3 ovarian, 34.4 µM in the assay with SK-MEL-5 melanoma and more than 100 µM with U251 CNS.
